Consider one molecule from ChEMBL document CHEMBL4828739, “Study on the structure-activity relationship of dihydroartemisinin derivatives: Discovery, synthesis, and biological evaluation of dihydroartemisinin-bile acid conjugates as potential anticancer agents” (Eur J Med Chem, 2021).

Holding throughout (format): ADME, organism-based
Series [1] is described as follows: AUClast in Sprague-Dawley rat plasma at 5 mg/kg, iv by UPLC-MS/MS analysis. The arrangement: route intravenous, time 0 - last, dose 5 mg/kg.
A short description of series [2]: Tmax in Sprague-Dawley rat plasma at 10 mg/kg, po by UPLC-MS/MS analysis.
A short description of series [3]: Half life in Sprague-Dawley rat plasma at 10 mg/kg, po by UPLC-MS/MS analysis.
Series [4] is described as follows: Oral bioavailability in Sprague-Dawley rat plasma at 10 mg/kg by UPLC-MS/MS analysis.
Series [5] is described as follows: AUC (0 to infinity) in Sprague-Dawley rat plasma at 5 mg/kg, iv by UPLC-MS/MS analysis. Also on record: route intravenous, time infinity, dose 5 mg/kg.
The nature of series [6]: Half life in Sprague-Dawley rat plasma at 5 mg/kg, iv by UPLC-MS/MS analysis.
Series [7] in a line: AUClast in Sprague-Dawley rat plasma at 10 mg/kg, po by UPLC-MS/MS analysis. Also on record: route oral, time 0 - last, dose 10 mg/kg.
The nature of series [8]: Volume of distribution at steady state in Sprague-Dawley rat plasma at 5 mg/kg, iv by UPLC-MS/MS analysis. To be noted: read-out: Vdss.
Series [9] in a line: AUC (0 to infinity) in Sprague-Dawley rat plasma at 10 mg/kg, po by UPLC-MS/MS analysis. Also on record: time infinity, route oral, dose 10 mg/kg.
Series [10] is described as follows: Clearance in Sprague-Dawley rat plasma at 5 mg/kg, iv by UPLC-MS/MS analysis.
The nature of series [11]: MRT (0 to infinity) in Sprague-Dawley rat plasma at 5 mg/kg, iv by UPLC-MS/MS analysis.
Series [12] is described as follows: Cmax in Sprague-Dawley rat plasma at 10 mg/kg, po by UPLC-MS/MS analysis. The arrangement: route oral, dose 10 mg/kg.

As usually defined, the AUC(0-t) is the area under the concentration-time curve up to a stated or last time point. A lower AUC(0-t) goes with low exposure. As a reminder, the Tmax is the time from dosing to the highest level. As usually defined, the half-life is how long it takes for the measured level to halve. A higher half-life goes with slow loss. Usually bioavailability stands for the share of a dose that reaches the circulation, judged against a reference dose that is usually intravenous. Lower therefore signals poor availability. Broadly, the AUC(0-inf) is total exposure, with the tail of the curve extrapolated. The low end stands for less exposure, the high end for more exposure. In general, clearance refers to the rate of elimination divided by the concentration. Read a high clearance as efficient removal. Usually MRT inf stands for a mean duration of stay, worked out from the concentration-time curve. One may read the Cmax as the highest concentration seen after dosing.

In the case of `C[C@H]1[C@@H](O[C@@H]2CC[C@@]3(C)[C@@H](C2)C[C@H](O)[C@@H]2[C@@H]3CC[C@]3(C)[C@@H]([C@H](C)CCC(=O)O)CC[C@@H]23)O[C@@H]2O[C@]3(C)CC[C@H]4[C@H](C)CC[C@@H]1[C@@]24OO3`, the exposure AUC(0-t) worked out at 10200 ng·h/mL in series [1] and 4190 ng·h/mL in [7]. For the same molecule, the time to peak (Tmax) in series [2] was determined as 100 min. The half-life in series [3] is 49.4 min; in series [6], 46.4 min. Also, the bioavailability in [4] turned out to be 20.6%. In addition, the figures for the AUC(0-inf) in series [5] and in [9] were 10200 ng·h/mL and 4430 ng·h/mL, respectively. For the same molecule, the Vd in series [8] was 0.346 L/kg. This molecule also showed a clearance in series [10] of 8.2 mL/min/kg. Besides, in series [11], the MRT inf amounted to 42.2 min. In [12], this molecule returned a Cmax of 1110 ng/mL.
